We go through 23 molecules from patent US10294228B2, “Breathing control modulating compounds, and methods of making and using same” (NEURAD LTD., priority 2015, dated 2019).

For the assay, the system named is anesthetized rats. As to the kind of experiment: Anesthetized rat spirometry screening assay (ventilatory activity, minute volume). Format: in vivo. The conditions noted are these: increase in minute volume (VE); for change in vivo at 0.3 mg/kg: 0.3 mg/kg IV bolus, read-out: VE % Inc @ 0.3 mg/kg IV; for change in vivo at 3 mg/kg: 3.0 mg/kg IV bolus, read-out: VE % Inc @ 3.0 mg/kg IV. The method, then:
Anesthetized rats provide a quick method of screening compounds for respiratory and cardiovascular activity.
Rats were initially anesthetized with 3% isoflurane (inhaled) and femoral artery and vein cannulas were surgically inserted. Once cannulated, the rats were transitioned to urethane anesthesia (1.5 g/kg; i.v.) and a tracheal cut-down was performed. After placing the tracheal cannula, it was connected to a pneumotachometer to record respiratory airflow from which respiratory rate (RR), tidal volume (VT), and their product minute volume (MV, also termed VE) were derived. After the surgical preparation was complete, animals were allowed to stabilize for 30 minutes while respiratory rate, tidal volume, minute volume, blood pressure and heart rate were recorded continuously. Arterial blood gases (ABG) were obtained from arterial blood collected from the femoral artery. ABG measurements were taken before and 6 minutes after vehicle and each dose of compound administered. Compounds being screened were administered via bolus injections through the venous cannula followed by a saline flush (total time of administration is approximately 30 seconds), and the animal was monitored for at least 6 minutes for changes in cardiovascular efforts. Compounds were prepared in formulations identified to ensure optimal solubility. As such, vehicle controls were matched for the formulation of each compound tested. Dosing of the compounds being screened was conducted at 0.1 and/or 0.3 mg/kg and/or 3 mg/kg The next dose was not administered until all cardiovascular and respiratory measures had returned to baseline levels. The positive control compounds used were N-[4,6-di-(n-propylamino)-[1,3,5]triazin-2-yl]-N,O-dimethyl-hydroxylamine or N-[2,6-di-(n-propylamino)-[1,3]pyrimidin-4-yl]-N,O-dimethyl-hydroxylamine (both administered at the end of each screening experiment (0.3 mg/kg dose) to validate the experiment and also to serve as a measure with which the compound being screened could be compared.
Data were analyzed by collecting cardiovascular and respiratory data in 30 second averages (BINs). Data were plotted 2 minutes before challenge and then 6 minutes after challenge.

Where a name gives a salt, the structure may show the parent alone.

As to `C=C(C)CNc1nc(NCC)c2nc(NC[C@H](C)O)nc(NCC)c2n1` [Compound 175, (S)-1-[4,8-Bis-ethylamino-6-(2-methyl-allylamino)-pyrimido[5,4-d]-pyrimidin-2-ylamino]-propan-2-ol], the change in vivo at 0.3 mg/kg was determined as 75% and the change in vivo at 3 mg/kg turned out to be 134%.
With `CCCNc1nc(NC)nc2c(N[C@H]3c4ccccc4C[C@H]3O)nc(NC)nc12` [Compound 79, (1S,2R)-1-(2,6-Bis-methylamino-8-propylamino-pyrimido[5,4-d]pyrimidin-4-ylamino)-indan-2-ol], the change in vivo at 0.3 mg/kg was 56% and the change in vivo at 3 mg/kg was determined as 162%.
Regarding `CC[C@@H](C)Nc1nc(NC)nc2c(NCC(C)(C)O)nc(NC)nc12` [Compound 40a, 1-[8-((R)-sec-Butylamino)-2,6-bis-methylamino-pyrimido[5,4-d]-pyrimidin-4-ylamino]-2-methyl-propan-2-ol Hydrochloride], the change in vivo at 0.3 mg/kg came out at 79% and the change in vivo at 3 mg/kg came out at 158%.
With `CCCNc1nc(NC)nc2c(NCCCO)nc(NC)nc12` [Compound 8a, 3-(2,6-Bis-methylamino-8-propylamino-pyrimido[5,4-d]pyrimidin-4-ylamino)-propan-1-ol hydrochloride], the change in vivo at 0.3 mg/kg worked out at 31%.
With `C=CCNc1nc(NC)c2nc(NC[C@@H](C)O)nc(NC)c2n1` [Compound 145, (R)-1-(6-Allylamino-4,8-bis-methylamino-pyrimido[5,4-d]pyrimidin-2-ylamino)-propan-2-ol], the change in vivo at 0.3 mg/kg is 47% and the change in vivo at 3 mg/kg was 156%.
As to `CCCNc1nc(NC)c2nc(N[C@H]3c4ccccc4C[C@@H]3O)nc(NC)c2n1` [Compound 125, (1S,2S)-1-(4,8-Bis-methylamino-6-propylamino-pyrimido[5,4-d]-pyrimidin-2-ylamino)-indan-2-ol], the change in vivo at 0.3 mg/kg turned out to be 38% and the change in vivo at 3 mg/kg was 84%.
For the molecule `CCNc1nc(NCC(C)(C)O)c2nc(NCC)nc(NCC(F)F)c2n1` [Compound 47a, 1-[8-(2,2-difluoro-ethylamino)-2,6-bis-ethylamino-pyrimido[5,4-d]pyrimidin-4-ylamino]-2-methyl-propan-2-ol hydrochloride], the change in vivo at 0.3 mg/kg amounted to 31%.
Regarding `C=C(C)CNc1nc(NC)c2nc(NC[C@H](C)O)nc(NC)c2n1` [Compound 159, (S)-1-[6-(2-Methyl-allylamino)-4,8-bis-methylamino-pyrimido[5,4-d]-pyrimidin-2-ylamino]-propan-2-ol], the change in vivo at 0.3 mg/kg worked out at 61% and the change in vivo at 3 mg/kg turned out to be 160%.
For `CNc1nc(NC[C@@H](C)O)nc2c(NC)nc(N)nc12` [Compound 151, (R)-1-(6-Amino-4,8-bis-methylamino-pyrimido[5,4-d]-pyrimidin-2-ylamino)-propan-2-ol], in that order: 0% and 95%.
As to `CNc1nc(NC)c2nc(NCC(C)(C)O)nc(NC)c2n1` [Compound 149, 2-Methyl-1-(4,6,8-tris-methylamino-pyrimido[5,4-d]pyrimidin-2-ylamino)-propan-2-ol], the change in vivo at 0.3 mg/kg amounted to 16% and the change in vivo at 3 mg/kg came to 49%.
For `CCCNc1nc(NC)c2nc(N[C@H]3CCCC[C@@H]3O)nc(NC)c2n1` [Compound 133, (1S,2S)-2-(4,8-Bis-methylamino-6-propylamino-pyrimido[5,4-d]pyrimidin-2-ylamino)-cyclohexanol], in that order: 35% and 111%.
For `CCCNc1nc(NCC)c2nc(NCC(C)(C)O)nc(NCC)c2n1` [Compound 163, 1-(4,8-Bis-ethylamino-6-propylamino-pyrimido[5,4-d]pyrimidin-2-ylamino)-2-methyl-propan-2-ol], in that order: 88% and 144%.
`CCCNc1nc(NC)nc2c(NCC(O)(CC)CC)nc(NC)nc12` [Compound 74a, 3-[(2,6-Bis-methylamino-8-propylamino-pyrimido[5,4-d]pyrimidin-4-ylamino)-methyl]-pentan-3-ol Hydrochloride]: the change in vivo at 0.3 mg/kg turned out to be 153% and the change in vivo at 3 mg/kg was determined as 208%.
In the case of `CCCNc1nc(NC)nc2c(NC[C@H](C)O)nc(NC)nc12` [Compound 12a, (S)-1-(2,6-Bis-methylamino-8-propylamino-pyrimido[5,4-d]pyrimidin-4-ylamino)-propan-2-ol hydrochloride], the change in vivo at 0.3 mg/kg worked out at 114%.
Take `CNc1nc(NCC2CC2)nc2c(NC)nc(NCCO)nc12` [Compound 90, 2-[6-(Cyclopropylmethyl-amino)-4,8-bis-methylamino-pyrimido[5,4-d]pyrimidin-2-ylamino]-ethanol]: the change in vivo at 0.3 mg/kg came to 26%.
With `CNc1nc(NCC(C)(C)O)nc2c(NC)nc(NCc3ncccn3)nc12` [Compound 109, 1-{4,8-Bis-methylamino-6-[(pyrimidin-2-ylmethyl)-amino]-pyrimido[5,4-d]pyrimidin-2-ylamino}-2-methyl-propan-2-ol], the change in vivo at 0.3 mg/kg came to 21% and the change in vivo at 3 mg/kg is 10%.
With `CCNc1nc(NCC)c2nc(NC[C@H](C)O)nc(NCC)c2n1` [Compound 165, (S)-1-(4,6,8-Tris-ethylamino-pyrimido[5,4-d]pyrimidin-2-ylamino)-propan-2-ol], the change in vivo at 0.3 mg/kg was determined as 66% and the change in vivo at 3 mg/kg amounted to 101%.
With `CCCNc1nc(NC)nc2c(N[C@H]3CCC[C@@H]3O)nc(NC)nc12` [Compound 86, (1S,2S)-2-(2,6-Bis-methylamino-8-propylamino-pyrimido[5,4-d]pyrimidin-4-ylamino)-cyclopentanol], the change in vivo at 0.3 mg/kg was determined as 26% and the change in vivo at 3 mg/kg was found to be 92%.
The corresponding values for `C=C(C)CNc1nc(NCC)c2nc(NC[C@@H](C)O)nc(NCC)c2n1` [Compound 174, (R)-1-[4,8-Bis-ethylamino-6-(2-methyl-allylamino)-pyrimido[5,4-d]-pyrimidin-2-ylamino]-propan-2-ol] are 72% and 114%.
Take `CCCNc1nc(NC)nc2c(N[C@@H]3c4ccccc4C[C@H]3O)nc(NC)nc12` [Compound 80, (1R,2R)-1-(2,6-Bis-methylamino-8-propylamino-pyrimido[5,4-d]-pyrimidin-4-ylamino)-indan-2-ol]: the change in vivo at 0.3 mg/kg is 71% and the change in vivo at 3 mg/kg is 95%.
As for `C#CCNc1nc(NC)nc2c(NCCO)nc(NC)nc12` [Compound 58a, 2-(2,6-Bis-methylamino-8-prop-2-ynylamino-pyrimido[5,4-d]pyrimidin-4-ylamino)-ethanol Hydrochloride], the change in vivo at 0.3 mg/kg is 10%.
With `CCCNc1nc(NC)c2nc(N(C)CC(C)(C)O)nc(NC)c2n1` [Compound 96, 1-[(4,8-Bis-methylamino-6-propylamino-pyrimido[5,4-d]pyrimidin-2-yl)-methyl-amino]-2-methyl-propan-2-ol], the change in vivo at 0.3 mg/kg was 70% and the change in vivo at 3 mg/kg turned out to be 96%.
Consider `C=CCNc1nc(NC)c2nc(N(C)C[C@H](C)O)nc(NC)c2n1` [Compound 156, (S)-1-[(6-Allylamino-4,8-bis-methylamino-pyrimido[5,4-d]pyrimidin-2-yl)-methyl-amino]-propan-2-ol], for which the change in vivo at 0.3 mg/kg is 16% and the change in vivo at 3 mg/kg was found to be 97%.
